Experiments:
Assay type in all cases: in vivo
corn (Zea mays) = assay: Test A pre-/postemergence plant response
Outline: (§1)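 Both pre- and postemergence treatment given concurrently; postemergence seedlings measured 2–10 cm at the one- to two-leaf stage. Visual injury, 0–100 scale versus untreated, at ~10 days.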

[1] = tested on: giant foxtail (Setaria faberi); assay: Test A pre-/postemergence plant response
Outline: as §1

[2] = tested on: johnsongrass (Sorghum halepense); assay: Test B pre-/postemergence plant response
Text: (§2) Seeds of plant species selected from blackgrass (Alopecurus myosuroides), downy bromegrass (Bromus tectorum), green foxtail (Setaria viridis), Italian ryegrass (Lolium multiflorum), wheat (Triticum aestivum), wild oat (Avena fatua), catchweed bedstraw (Galium aparine), bermudagrass (Cynodon dactylon), surinam grass (Brachiaria decumbens), cocklebur (Xanthium strumarium), corn (Zea mays), large crabgrass (Digitaria sanguinalis), woolly cupgrass (Eriochloa villosa), giant foxtail (Setaria faberii), goosegrass (Eleusine indica), johnsongrass (Sorghum halepense), kochia (Kochia scoparia), lambsquarters (Chenopodium album), morningglory (Ipomoea coccinea), eastern black (E.B.) nightshade (Solanum ptycanthum), yellow nutsedge (Cyperus esculentus), pigweed (Amaranthus retroflexus), common ragweed (Ambrosia elation), Russian thistle (Salsola iberica), soybean (Glycine max), common (oilseed) sunflower (Helianthus annuus), and velvetleaf (Abutilon theophrasti) were planted and treated preemergence with test chemicals formulated in a non-phytotoxic solvent mixture which included a surfactant.
(§3) At the same time, plants selected from these crop and weed species and also winter barley (Hordeum vulgare), canarygrass (Phalaris minor), chickweed (Stellaria media) and windgrass (Apera spica-venti) were treated with postemergence applications of some of the test chemicals formulated in the same manner. Plants ranged in height from 2 to 18 cm (1- to 4-leaf stage) for postemergence treatments.
(§4) Plant species in the flooded paddy test consisted of rice (Oryza sativa), umbrella sedge (Cyperus difformis), ducksalad (Heteranthera limosa) and barnyardgrass (Echinochloa crus-galli) grown to the 2-leaf stage for testing. At time of treatment, test pots were flooded to 3 cm above the soil surface, treated by application of test compounds directly to the paddy water, and then maintained at that water depth for the duration of the test. Treated plants and controls were maintained in a greenhouse for 13 to 15 days, after which time all species were compared to controls and visually evaluated. Plant response ratings, summarized in Table B, are based on a scale of 0 to 100 where 0 is no effect and 100 is complete control. A dash (-) response means no test result.

[3] = tested on: bermudagrass (Cynodon dactylon); assay: Test B pre-/postemergence plant response
Text: as §2, §3, §4

[4] = tested on: common (oilseed) sunflower (Helianthus annuus); assay: Test B pre-/postemergence plant response; settings: Preemergence
Text: as §2, §3, §4

[5] = tested on: wheat (Triticum aestivum); assay: Test B pre-/postemergence plant response
Text: as §2, §3, §4

[6] = tested on: yellow nutsedge (Cyperus esculentus); assay: Test B pre-/postemergence plant response
Text: as §2, §3, §4

[7] = tested on: velvetleaf (Abutilon theophrasti); assay: Test B pre-/postemergence plant response
Text: as §2, §3, §4

[8] = tested on: eastern black (E.B.) nightshade (Solanum ptycanthum); assay: Test B pre-/postemergence plant response; settings: Preemergence
Text: as §2, §3, §4

[9] = tested on: Italian ryegrass (Lolium multiflorum); assay: Test B pre-/postemergence plant response
Text: as §2, §3, §4

soybean (Glycine max) = assay: Test B pre-/postemergence plant response
Text: as §2, §3, §4

[10] = Postemergence, 31 g ai/ha, 0 to 100 scale, 0 no effect, 100 complete control
[11] = Postemergence, 125 g ai/ha, 0 to 100 scale, 0 no effect, 100 complete control
[12] = Preemergence, 31 g ai/ha, 0 to 100 scale, 0 is no effect, 100 is complete control
[13] = Preemergence, 125 g ai/ha, 0 to 100 scale (0 no effect, 100 complete control)
[14] = 8 g ai/ha, postemergence, 0-100 scale
[15] = 16 g ai/ha, postemergence, 0-100 scale
[16] = Postemergence, 31 g ai/ha, scale 0 to 100
[17] = Postemergence, 62 g ai/ha, scale 0 to 100, 0 no effect, 100 complete control
[18] = Preemergence, 8 g ai/ha, scale 0 to 100 (0 no effect, 100 complete control)
[19] = Preemergence, 31 g ai/ha, scale 0 to 100 (0 no effect, 100 complete control)
[20] = Preemergence, 62 g ai/ha, 0 to 100 scale, 0 no effect, 100 complete control
[21] = Preemergence, 16 g ai/ha, scale 0 to 100
[22] = 8 g ai/ha, scale 0 to 100 (0 no effect, 100 complete control)
[23] = 31 g ai/ha, scale 0 to 100 (0 no effect, 100 complete control)
[24] = 62 g ai/ha, 0 to 100 scale, 0 no effect, 100 complete control

COc1nn(C)c(=O)c(-n2nc(-c3ccc(Br)cc3)cc2C)c1O [Compound 82]
Plant response rating, Corn (corn (Zea mays); [10]): 80
Plant response rating, Corn (corn (Zea mays); [11]): 100
Plant response rating, Corn (corn (Zea mays); [12]): 40
Plant response rating, Corn (corn (Zea mays); [13]): 50
Plant response rating, Foxtail, Giant [1, 10]: 100
Plant response rating, Foxtail, Giant [1, 11]: 100
Plant response rating, Foxtail, Giant [1, 12]: 90
Plant response rating, Foxtail, Giant [1, 13]: 100
Johnsongrass plant response rating [2, 14]: 100
Johnsongrass plant response rating [2, 15]: 100
Plant response rating, Johnsongrass [2, 16]: 100
Plant response rating, Johnsongrass [2, 17]: 100
Johnsongrass plant response rating [2, 18]: 70
Plant response rating, Johnsongrass [2, 19]: 98
Plant response rating, Johnsongrass [2, 20]: 100
Johnsongrass plant response rating [2, 21]: 85
Bermudagrass plant response rating [3, 14]: 98
Bermudagrass plant response rating [3, 15]: 100
Plant response rating, Bermudagrass [3, 16]: 100
Plant response rating, Bermudagrass [3, 17]: 100
Bermudagrass plant response rating [3, 18]: 90
Bermudagrass plant response rating ([3]; Preemergence, 16 g ai/ha, scale 0 to 100 (0 no effect, 100 complete control)): 100
Plant response rating, Bermudagrass [3, 19]: 100
Plant response rating, Bermudagrass [3, 20]: 100
Sunflower plant response rating [4, 22]: 0
Plant response rating, Sunflower [4, 23]: 70
Plant response rating, Sunflower [4, 24]: 85
Sunflower plant response rating ([4]; 16 g ai/ha, scale 0 to 100): 60
Wheat plant response rating [5, 14]: 85
Wheat plant response rating [5, 15]: 98
Plant response rating, Wheat [5, 16]: 100
Plant response rating, Wheat [5, 17]: 100
Wheat plant response rating [5, 18]: 0
Plant response rating, Wheat [5, 19]: 98
Plant response rating, Wheat [5, 20]: 100
Wheat plant response rating [5, 21]: 65
Nutsedge, Yellow plant response rating [6, 14]: 0
Nutsedge, Yellow plant response rating [6, 15]: 0
Plant response rating, Nutsedge, Yellow [6, 16]: 0
Plant response rating, Nutsedge, Yellow [6, 17]: 0
Nutsedge, Yellow plant response rating [6, 18]: 0
Plant response rating, Nutsedge, Yellow [6, 19]: 0
Plant response rating, Nutsedge, Yellow [6, 20]: 45
Nutsedge, Yellow plant response rating [6, 21]: 0
Velvetleaf plant response rating [7, 14]: 0
Velvetleaf plant response rating [7, 15]: 0
Plant response rating, Velvetleaf [7, 16]: 0
Plant response rating, Velvetleaf [7, 17]: 55
Velvetleaf plant response rating [7, 18]: 0
Plant response rating, Velvetleaf [7, 19]: 45
Plant response rating, Velvetleaf [7, 20]: 75
Velvetleaf plant response rating [7, 21]: 0
Nightshade, E. B. plant response rating [8, 22]: 0
Plant response rating, Nightshade, E. B. [8, 23]: 0
Plant response rating, Nightshade, E. B. [8, 24]: 0
Nightshade, E. B. plant response rating ([8]; 16 g ai/ha, scale 0 to 100): 0
Ryegrass, Italian plant response rating [9, 14]: 98
Ryegrass, Italian plant response rating [9, 15]: 98
Plant response rating, Ryegrass, Italian [9, 16]: 100
Plant response rating, Ryegrass, Italian [9, 17]: 100
Ryegrass, Italian plant response rating [9, 18]: 40
Plant response rating, Ryegrass, Italian [9, 19]: 100
Plant response rating, Ryegrass, Italian [9, 20]: 100
Ryegrass, Italian plant response rating [9, 21]: 98
Soybean plant response rating (soybean (Glycine max); [14]): 0
Soybean plant response rating (soybean (Glycine max); [15]): 45
Plant response rating, Soybean (soybean (Glycine max); [16]): 55
Plant response rating, Soybean (soybean (Glycine max); [17]): 70
Soybean plant response rating (soybean (Glycine max); [18]): 0
Plant response rating, Soybean (soybean (Glycine max); [19]): 20
Plant response rating, Soybean (soybean (Glycine max); [20]): 100
Soybean plant response rating (soybean (Glycine max); [21]): 0

Source: patent US20100267561A1, “HERBICIDAL PYRIDAZINONE DERIVATIVES” (priority 2007, published 2010)
